Experimental data reported in the SangsterLogP compilation.

| SMILES | logP |
| --- | --- |
| CN(C)c1ccc(-n2nnnc2S(C)(=O)=O)cc1 | 2.7 |
| CS(=O)(=O)c1nnnn1-c1cccc(C(F)(F)F)c1 | 2.9 |
| CCCS(=O)(=O)c1nnnn1-c1ccc([N+](=O)[O-])cc1 | 2.7 |
| CS(=O)(=O)c1nnnn1C1CCCCC1 | 2.1 |
| CS(=O)c1nnnn1-c1ccc([N+](=O)[O-])cc1 (stereo unspecified) | 1.4 |
| CCCCCCCCS(=O)c1nnnn1-c1ccc([N+](=O)[O-])cc1 (stereo unspecified) | 4.7 |
| CC(=O)Oc1ccc(-n2nnnc2S(C)(=O)=O)cc1 | 1.6 |
| Cc1ccc(-n2nnnc2S(C)(=O)=O)cc1 | 2.5 |
| CS(=O)(=O)c1nnnn1Cc1ccc([N+](=O)[O-])cc1 | 2.1 |
| CCCCCCS(=O)(=O)c1nnnn1-c1ccc([N+](=O)[O-])cc1 | 4.3 |
| CCCCCCS(=O)c1nnnn1-c1ccc([N+](=O)[O-])cc1 (stereo unspecified) | 3.5 |
